Source: PubChem BioAssay (NCI)
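Assay format: 96-well plates, 48-hour exposure. The concentration for 50% growth inhibition is given as GI50. The concentration for full growth arrest is given as TGI.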 Where a SMILES comes first, the peptide text is derived from it. The star is where a group is joined. Boc = CC(C)(C)OC(=O)*; nBu = CCCC*

What was measured:
Assay in all cases: inhibition of tumour cell growth, NCI panel, 48 h
SK-MEL-28 melanoma = tested on: SK-MEL-28 melanoma
MOLT-4 leukemia = tested on: MOLT-4 leukemia
RPMI-8226 leukemia = tested on: RPMI-8226 leukemia
NCI/ADR-RES ovarian = tested on: NCI/ADR-RES ovarian
HT29 colon = tested on: HT29 colon
HCC-2998 colon = tested on: HCC-2998 colon
SK-OV-3 ovarian = tested on: SK-OV-3 ovarian
SF-268 CNS = tested on: SF-268 CNS
SK-MEL-5 melanoma = tested on: SK-MEL-5 melanoma
SW-620 colon = tested on: SW-620 colon
MDA-MB-435 = tested on: MDA-MB-435
CCRF-CEM leukemia = tested on: CCRF-CEM leukemia

| Structure (SMILES) | TGI (SK-MEL-28 melanoma) [µM] | TGI (MOLT-4 leukemia) [µM] | TGI (RPMI-8226 leukemia) [µM] | TGI (NCI/ADR-RES ovarian) [µM] | TGI (HT29 colon) [µM] | TGI (HCC-2998 colon) [µM] | TGI (SK-OV-3 ovarian) [µM] | TGI (SF-268 CNS) [µM] | TGI (SK-MEL-5 melanoma) [µM] | TGI (SW-620 colon) [µM] | TGI (MDA-MB-435) [µM] | TGI (CCRF-CEM leukemia) [µM] | GI50 (HCC-2998 colon) [µM] | GI50 (SK-MEL-28 melanoma) [µM] | GI50 (HT29 colon) [µM] | GI50 (SK-OV-3 ovarian) [µM] | GI50 (SK-MEL-5 melanoma) [µM] | GI50 (SW-620 colon) [µM] | GI50 (MDA-MB-435) [µM] | GI50 (CCRF-CEM leukemia) [µM] |
| --- | --- | --- | --- | --- | --- | --- | --- | --- | --- | --- | --- | --- | --- | --- | --- | --- | --- | --- | --- | --- |
| CCCCOc1ccc(CC(NC(=O)OC(C)(C)C)C(=O)NC(C)C(=O)NC(Cc2ccccc2)C(=O)NCC(N)=O)cc1 (stereo not given) (Boc-Y(nBu)AFG-NH2; configuration not given here) | > 100 | 53.3 | > 100 | > 100 | > 100 | > 100 | > 100 | > 100 | > 100 | > 100 | > 100 | > 100 | – | – | – | – | – | – | – | – |
| O=C(Cc1nc2ccccc2[nH]c1=O)c1c[nH]c2ccccc12 | – | > 100 | > 100 | 28.5 | 27.3 | 41.6 | 47.6 | > 100 | 26.9 | > 100 | > 100 | > 100 | – | – | – | – | – | – | – | – |
| COc1ccc2nc3cc(Cl)ccc3c(NCCCN3CCN(CCCNc4ccc5nnn6c7ccccc7c(=O)c4c56)CC3)c2c1 | > 25 | > 25 | > 25 | > 25 | > 25 | > 9.86 | > 25 | > 25 | > 25 | > 25 | > 25 | > 25 | – | – | – | – | – | – | – | – |
| O=C(Nc1ccccc1)Oc1ccc(C(=S)Nc2ccc(Br)cc2)cc1 | 46.4 | 66.2 | > 100 | 39.7 | 34.7 | 40.8 | > 100 | > 100 | 31.1 | > 100 | 39.7 | 28.5 | – | – | – | – | – | – | – | – |
| COc1ccccc1-c1c(C#N)c(N)[nH]c(=S)c1C#N | > 100 | > 100 | > 100 | > 100 | > 100 | > 100 | – | > 100 | > 100 | > 100 | > 100 | – | – | – | – | – | – | – | – | – |
| Cc1c(-c2ccccc2)[nH]c2cn[nH]c(=O)c12 | > 100 | > 100 | > 100 | > 100 | > 100 | > 100 | > 100 | > 100 | > 100 | > 100 | > 100 | > 100 | – | – | – | – | – | – | – | – |
| CC1(C)OC[C@@H]([C@@]2(COC(c3ccccc3)(c3ccccc3)c3ccccc3)CC=CC(=O)O2)O1 | > 100 | 98.2 | 64.7 | – | > 100 | 41 | > 100 | > 100 | – | > 100 | > 100 | 96.7 | – | – | – | – | – | – | – | – |
| O=C(O)c1cc2ccccc2c(N=Nc2ccc(S(=O)(=O)Nc3ncccn3)cc2)c1O | > 100 | > 100 | > 100 | > 100 | > 100 | > 100 | > 100 | > 100 | > 100 | > 100 | > 100 | > 100 | – | – | – | – | – | – | – | – |
| COc1cc(C2S/C(=C/c3ccccc3)C(=O)N2c2cccc(NC(C)=O)c2)cc(OC)c1OC (stereo not given) | > 100 | > 100 | – | > 100 | 59.7 | > 100 | > 100 | > 100 | > 100 | – | 47.2 | > 100 | – | – | – | – | – | – | – | – |
| Cc1cc(-c2nc3c(F)cccc3s2)ccc1N | > 100 | 63.9 | > 100 | > 100 | > 100 | > 100 | > 100 | > 100 | > 100 | > 100 | > 100 | > 100 | > 100 | – | – | – | – | – | – | – |
| C=C1C(O)C2(O)OCC34C(CC5C(C)=CC(=O)C(O)C5(C)C23)OC(=O)C(OC(=O)C/C=C/CCCCCCCC)C14 (stereo not given) | 0.0311 | 0.533 | 0.0249 | 2.55 | 0.115 | 0.0308 | 0.606 | 0.035 | – | 0.0471 | – | 0.166 | – | – | – | – | – | – | – | – |
| CN(C)c1ccc(-c2ccc(-c3ccc(C(=N)N)cn3)o2)cc1 | 3.36 | – | – | – | 1.74 | – | 3.28 | – | 3 | 2.41 | 2.5 | 4.36 | – | 1.76 | 0.479 | 1.88 | 1.58 | 0.774 | 1.24 | 1.8 |
| O=[N+]([O-])c1ccc(N=Nc2c(O)[nH]c3ccccc23)c([N+](=O)[O-])c1 | > 100 | > 100 | > 100 | 59.9 | 81.7 | 44.1 | 32.4 | > 100 | > 100 | > 100 | > 100 | > 100 | – | – | – | – | – | – | – | – |
